Key:
[1] = tested on: liver PDH activity; experiment: Ex vivo PDH activation assay, liver; format: in vivo, Sprague-Dawley rats
Protocol: (§1) The action of test compound on tissue PDH activity was evaluated. NADH production was detected via p-iodonitrotetrazolium violet (INT)-coupled system to measure PDH activity.
(§2) Normal male Sprague-Dawley rats were randomly allocated to the vehicle group and the test compound groups. The vehicle (0.5% aqueous methylcellulose solution, 5 mL/kg) or the test compound was orally administered to the rats. At 5 or 20 hr after administration, the rats were anesthetized with an intraperitoneal injection of sodium pentobarbital (60 mg/kg), and liver slices and epididymal adipose tissues were collected.
(§3) To the liver slices were rapidly added 9 volumes of ice-cold homogenization buffer (0.25 mol/L sucrose, 5 mmol/L tris(hydroxymethyl)aminomethane hydrochloride (pH 7.5), 2 mmol/L EDTA), and the mixtures were homogenized using a Polytron homogenizer. The homogenates were centrifuged at 600×g, 4° C. for 10 min to obtain the supernatant. The supernatants (1 mL) were centrifuged at 16,000×g, 4° C. for 10 min to collect the precipitates. The precipitates were washed by resuspension in the homogenization buffer (1 mL) and centrifuged in the same manner. The precipitates were frozen with liquid nitrogen and stored at −80° C. as the liver mitochondrial fraction.
(§4) The mitochondrial fractions were thawed and suspended with the sample buffer (0.25 mol/L sucrose, 20 mmol/L tris(hydroxymethyl)aminomethane hydrochloride (pH 7.5), 50 mmol/L potassium chloride, and 1 mL/L 4-(1,1,3,3-tetramethylbutyl)phenyl-polyethylene glycol (Triton X-100)). Active PDH activity (PDHa activity) and total PDH activity (PDHt activity) were measured to evaluate the PDH activity. For the measurement of the PDHt activity, equal amounts of the mitochondrial suspension and the activation buffer (0.25 mol/L sucrose, 20 mmol/L tris(hydroxymethyl)aminomethane hydrochloride (pH 7.5), 50 mmol/L potassium chloride, 1 mL/L Triton X-100, 4 mmol/L calcium chloride, 40 mmol/L magnesium chloride, 10 mmol/L sodium dichloroacetate) were mixed, and the mixtures were incubated at 37° C. for 10 min. Forty microliters of the mitochondrial suspensions diluted with a sample buffer were added to a 96-well microplate for activity measurement and blank measurement. Then 180 μL of the reaction mixture (0.056 mmol/L potassium phosphate buffer (pH 7.5), 5.6 mmol/L DL-carnitine, 2.8 mmol/L NAD, 0.22 mmol/L thiamin pyrophosphate, 0.11 mmol/L Coenzyme A, 1.1 mL/L Triton X-100, 1.1 mmol/L magnesium chloride, 1.1 g/L bovine serum albumin, 0.67 mmol/L INT, 7.2 μmol/L phenazine methosulfate, 28 mmol/L sodium oxamate) was added to each well, and then 20 μL of 50 mmol/L sodium pyruvate for activity measurement or water for blank measurement were added. The mixtures were incubated at room temperature under shading. The absorbances at 500-750 nm, which were attributable to reduction of INT, the final electron acceptor, were measured using a microplate reader over time and the changes in the absorbance were calculated. The PDH activity was calculated by subtraction of the change in absorbance of the blank well from that of the activity measurement well. The percentage of the PDHa activity to the PDHt activity was calculated and taken as an index of the PDH activation.

[2] = tested on: adipose tissue PDH activity; experiment: Ex vivo PDH activation assay, adipose tissue; format: in vivo, Sprague-Dawley rats
Protocol: as §1, §2
as §3, with “adipose tissues” for “liver slices”, “3” for “9”, “of an” for “of”, “buffer,” for “buffer (0.25 mol/L sucrose, 5 mmol/L tris(hydroxymethyl)aminomethane hydrochloride (pH 7.5), 2 mmol/L EDTA),”, “supernatants” for “supernatants (1 mL)”, “adipose tissue” for “liver”
as §4

[3] = Table 2, 5 hr after oral 3 mg/kg, non-fasting SD rats, vehicle 13 ± 3, mean ± S.D. (n = 3)
[4] = Table 2, 20 hr after oral 3 mg/kg, non-fasting SD rats, vehicle 13 ± 3, mean ± S.D. (n = 3)
[5] = Table 2, 5 hr after oral 3 mg/kg, non-fasting SD rats, vehicle 31 ± 10, mean ± S.D. (n = 3)
[6] = Table 2, 20 hr after oral 3 mg/kg, non-fasting SD rats, vehicle 31 ± 10, mean ± S.D. (n = 3)

SMILES	PDHa activity (% of PDHt activity) [1, 3]	PDHa activity (% of PDHt activity) [1, 4]	PDHa activity (% of PDHt activity) [2, 5]	PDHa activity (% of PDHt activity) [2, 6]	PDHa activity (% of PDHt activity) ([1]; Table 3, 5 hr after oral 3 mg/kg, SD rats, vehicle 28 ± 6, mean ± S.D. (n = 3))	PDHa activity (% of PDHt activity) ([1]; Table 3, 20 hr after oral 3 mg/kg, SD rats, vehicle 28 ± 6, mean ± S.D. (n = 3))	PDHa activity (% of PDHt activity) ([2]; Table 3, 5 hr after oral 3 mg/kg, SD rats, vehicle 42 ± 4, mean ± S.D. (n = 3))	PDHa activity (% of PDHt activity) ([2]; Table 3, 20 hr after oral 3 mg/kg, SD rats, vehicle 42 ± 4, mean ± S.D. (n = 3))
Cn1cc(-c2cc(OCC(C)(C)O)cc3c2-c2ccccc2[C@]3(O)C(F)(F)F)cn1 [Compound (B), (9R)-2-(2-Hydroxy-2-methylpropoxy)-4-(1-methyl-1H-pyrazol-4-yl)-9-(trifluoromethyl)-9H-fluoren-9-ol]	43 ± 7 % of PDHt activity	10 ± 3 % of PDHt activity	59 ± 5 % of PDHt activity	30 ± 4 % of PDHt activity	–	–	–	–
CC(C)(O)CCCOc1cc(-c2cnn(C(C)(C)C(N)=O)c2)c2c(c1)[C@@](O)(C(F)(F)F)c1ccccc1-2 [Compound (3), 2-{4-[(9R)-9-hydroxy-2-(4-hydroxy-4-methylpentyloxy)-9-(trifluoromethyl)-9H-fluoren-4-yl]-1H-pyrazol-1-yl}-2-methylpropanamide]	56 ± 8 % of PDHt activity	32 ± 9 % of PDHt activity	70 ± 9 % of PDHt activity	42 ± 3 % of PDHt activity	–	–	–	–
NC(=O)Cn1cc(-c2cc(OCCC34CC5CC(CC(O)(C5)C3)C4)cc3c2-c2ccccc2[C@]3(O)C(F)(F)F)cn1 [Compound (A), 2-(4-{(9R)-9-Hydroxy-2-[2-(3-hydroxyadamantan-1-yl)ethoxy]-9-(trifluoromethyl)-9H-fluoren-4-yl}-1H-pyrazol-1-yl)acetamide]	35 ± 6 % of PDHt activity	16 ± 10 % of PDHt activity	32 ± 14 % of PDHt activity	24 ± 7 % of PDHt activity	–	–	–	–
CC(C)(O)CCOc1cc(-c2cnn(C(C)(C)C(N)=O)c2)c2c(c1)[C@@](O)(C(F)(F)F)c1ccccc1-2 [Compound (2), 2-{4-[(9R)-9-hydroxy-2-(3-hydroxy-3-methylbutyloxy)-9-(trifluoromethyl)-9H-fluoren-4-yl]-1H-pyrazol-1-yl}-2-methylpropanamide]	–	–	–	–	74 ± 12 % of PDHt activity	50 ± 16 % of PDHt activity	88 ± 11 % of PDHt activity	61 ± 15 % of PDHt activity
